Data from ChEMBL document CHEMBL5214919, “Discovery of Novel BRD4 Ligand Scaffolds by Automated Navigation of the Fragment Chemical Space” (J Med Chem, 2021).

Legend:
[1] = molecular target: T1, Bromodomain-containing protein 4 (Homo sapiens, UniProt O60885); assay: Binding affinity to BRD4 (unknown origin) expressed in Escherichia coli BL21 (DE3) assessed as thermal stabilization at 10 uM by SYPRO orange dye based DSF assay
[2] = molecular target: T1, Bromodomain-containing protein 4; assay: Inhibition of BRD4 (unknown origin) expressed in Escherichia coli BL21 (DE3) using [Lys(Ac)5/8/12/16]-histone H4 (1 to 21residues)-GGK as substrate incubated for 30 mins by TR-FRET assay

Structure (SMILES) | ΔTm [1] | IC50 [2]
CCc1nnc2scc(-c3ccccc3)n12 | 3.3 °C | 
Cc1cc(SCc2c(C)noc2C)ncn1 | 1.8 °C | 30 µM
Cc1noc(C)c1CSc1nnc(C)n1N |  | 191 µM
Cc1noc(N)c1-c1ccccc1 | 4.55 °C | 91 µM
Cc1n[nH]c2nnc(N)c-2c1C | 0.9 °C | 
COc1ccc(CNC(=O)CSc2nnc(N)s2)cc1 | 0.9 °C | 
COc1cccc(Cc2nnc(N)s2)c1 | 1.6 °C | 
Cc1cc(Cl)ccc1O[C@H](C)c1nnc(N)s1 | 0.8 °C | 79 µM
Cc1nc(C#N)c(NCc2csnn2)o1 | 3.4 °C | 
CCCc1nnc(NC(=O)c2c(C)noc2C)s1 | 0.9 °C | 
Cc1nnc2n1C[C@@H](NC(=O)Cn1cnnn1)CC2 | 2.9 °C | 
Cc1noc(C)c1C(=O)Nc1nnc(C2CC2)s1 |  | 86 µM
Cc1nonc1-c1cc2ccccc2[nH]1 | 2.6 °C | 
Nc1noc2c1c(=O)[nH]c1ccccc12 | 3.1 °C | 
Oc1ccccc1-n1c(O)nnc1S |  | 644 µM
Oc1ccc(Cl)cc1Nc1ncnc2nc[nH]c12 | 2.4 °C | 491 µM
